Test results as given in patent publication US11225507B2, “Conformation switchable antimicrobial peptides and methods of using the same” (priority 2017, dated 2022).
Like-named read-outs stand apart in the source and are kept apart here.

Key:
[1] = test system: clinically isolated H. pylori strains, including clarithromycin-resistant J99A-7, J99A-11, J99C-8, and J99D-1; test: Bactericidal activity against clinically isolated H. pylori strains; type: cell-based, Helicobacter pylori; conditions: pH 3.0, 1 h incubation, 4.4 μM
Procedure: FIG. 3. HCT-AMPs effectively kill clinically isolated drug resistant H. pylori. (A) The bactericidal activity of PL2 against clinically isolated H. pylori strains. PL2, dissolved in the Tris-HCl buffer (pH 3.0), were incubated with clinically isolated strains in BB medium supplied with fresh urea, FBS and vancomycin (pH 3.0) for 1 h. The final concentration of PL2 was 4.4 μM. (B) The antibacterial activity of triple therapy against J99A-11 at pH 7.4 or 3.0. Concentrations of omeprazole, amoxicillin, and clarithromycin in OAC1 are 20.0 μM, 6.8 μM, and 1.9 μM, respectively; in OAC2 are 40.0 μM, 13.6 μM, and 3.8 μM, respectively; in OAC3 are 80.0 μM, 27.2 μM, and 7.6 μM, respectively (bars, left to right). (C) The antibacterial activity of omeprazole (0) and a combination of amoxicillin and clarithromycin (AC) against J99A-11 at pH 3.0. O1, O2, O3 represents the concentration of omeprazole at 20.0 μM, 40.0 μM, and 80.0 μM, respectively. AC1, AC2, AC3 represents the concentration of amoxicillin and clarithromycin at 6.8 μM and 1.9 μM, 13.6 μM and 3.8 μM, 27.2 μM and 7.6 μM, respectively.
H. pylori killing kinetics at various pHs. The killing kinetics of polypeptides were measured against H. pylori by counting the colony forming units (CFU) of alive bacteria with agar plating. […] The plates were incubated for 72 h in the incubator and the bacteria were counted for CFU. […]

[2] = mouse, in vivo
Procedure: In vivo and ex vivo biodistribution of Cy5-PL2. Cy5-PL2 (2.6 μmol/kg), Cy5-PDL2 (2.6 μmol/kg) and PBS were administrated by oral gavage. Mice were placed on the sample stage equipped with anesthesia input and output ports, and imaged by the Bruker Xtreme In-Vivo Fluorescence Imaging System at 1 h, 2 h, 4 h, 7 h, and 24 h post injection (p.i.). The excitation filter was set at 630 nm and the emission filter was set at 700 nm. Collected images were analyzed by the Bruker molecular imaging software. Stomach, intestines, liver, lung, kidneys, heart, and spleen were harvested at 4 h or 24 h p.i. of Cy5-PL2 and imaged ex vivo using the Bruker Xtreme In-Vivo Imaging System. Ex vivo images were quantified by measuring FI at selected region of interest (ROI). All values were expressed as means±standard deviation (n=3). […] The other half of the stomach were placed into separate glass tubes containing 2 mL of lysis buffer (1% SDS, 100 10 mM Tris.HCl, pH 7.4, 1 tablet of EDTA-free protease inhibitor), homogenized, and incubated at 4° C. for 2 h. The lysates were then centrifuged at 3000 rcf for 10 min to remove the insoluble cell debris, and measured on a fluorescence spectrometer to determine the amount of Cy5 retained in the tissues. The amount of Cy5 was calculated based on the standard curve of Cy5 FI and normalized to percentage of injected dose (% I.D.) per gram tissue.

[3] = test system: H. pylori SS1; test: SEM analysis of bacterial morphology; type: cell-based, Helicobacter pylori; conditions: 30 min
Procedure: SEM analysis. SS1 bacterial cells grown in BB with the supplement of 10% FBS under pH 7.4 or 4.0 with or without polypeptides (2.2 μM) treatment were performed using a similar protocol as killing kinetics measurements but with a 30 min incubation time. All the samples were collected into a microfuge tube and pelleted at 4000 rpm for 5 min, and then washed twice with phosphate-buffered saline. Subsequently, bacteria were fixed with paraformaldehyde solution (4%) for 1 h before proceeding, followed by washing with DI water. Dehydration was performed with a series of graded ethanol solution (10%, 25%, 50%, 75%, 95%, and 100%). The dehydrated samples were dried under vacuum overnight before being mounted on carbon tape and coated with gold-platinum for imaging using a Hitachi S-4700 High Solution SEM (Japan).

[4] = Liposome dye leakage assay (ANTS/DPX efflux)
Procedure: Liposome dye leakage assay. ANTS (12.5 mM) and DPX (45 mM) were dissolved in Tris buffer (pH=7.4). To a clean round-bottom flask, appropriate volumes of lipid stocks were added to make up 1 mL of CHCl3 (3:1 POPE (1-palmitoyl-2-oleoyl-sn-glycero-3-phosphoethanolamine)/POPG (1-palmitoyl-2-oleoyl-sn-glycero-3-phospho-(1′-rac-glycerol) (sodium salt)) vesicles, POPE (130 μL, 25 mg/mL CHCl3) and POPG (115 μL, 10 mg/mL CHCl3) were used). The solvent was removed by a stream of nitrogen gas to obtain a thin lipid film, which was then hydrated by 1 mL of ANTS/DPX solution. The mixture was left to hydrate for 1 h, after which it was subjected to 10 freeze-thaw cycles (using dry ice/acetone to freeze and warm water to thaw). The suspension was extruded 20 times through a polycarbonate membrane with 400 nm pore diameter. The excess dye was removed using Sephadex G-50 column as the eluent. The dye-filled vesicle fractions were diluted 200 times with Tris buffer. This suspension (90 μL) was subsequently mixed with polypeptide stock solutions (10 μL) at various pH (pH 7.4 or 4.0) on a 96-well black microplate (Greiner, flat bottom). Tris buffer (10 μL, pH 7.4 or 4.0) and Triton-X (0.1% v/v, 10 μL, pH 7.4 or 4.0) were employed as the negative and positive controls at corresponding pH, respectively. After 30 min, the fluorescence intensity in each well was recorded using the microplate reader with excitation and emission wavelengths of 380 and 520 nm, respectively. The percentage of leaked […] dye in each well was determined as follows: leakage (%)=[(F−F0)/(FTX−F0)]×100%, where F is the fluorescence intensity recorded in the well, F0 is the intensity in the negative control well, and FTX is the intensity in the positive control well.

With (PGA)18-r-(PHLG-MHH)20 [PL2] the bacterial strains killed [1] was “over 90%”, the gastric retention [2] was roughly 6% and the gastric retention ([2]; po, 2.6 umol/kg, 4 h) was roughly 40 % ID/g. For the same substance, the “bacterial membrane/morphology by SEM” value ([3]; pH 4.0, 2.2 μM) was “dramatic damage of the bacterial membranes”, the “bacterial membrane/morphology by SEM” value ([3]; pH 7.4, 2.2 μM) was “minimally affected the bacterial morphology” and the “dye leakage from anionic liposomes” value ([4]; pH 4.0) was “great dye leakage”. The “dye leakage from anionic liposomes” value ([4]; pH 7.4) was “minimal dye leakage”.
